Test results from patent US8808737B2 (Endo Pharmaceuticals Inc., priority 2007, dated 2014).

Experiments:
[1] = Pain levels (VAS, categorical scale) vs plasma oxymorphone and 6-hydroxyoxymorphone after a single dose; type: in vivo, human; conditions: single dose of oxymorphone, FIGS. 1-4
Procedure: For these tests, pain was measured using a Visual Analog Scale (VAS) or a Categorical Scale. The VAS scales consisted of a horizontal line, 100 mm in length. The left-hand end of the scale (0 mm) was marked with the descriptor “No Pain” and the right-hand end of the scale (100 mm) was marked with the descriptor “Extreme Pain”. Patients indicated their level of pain by making a vertical mark on the line. The VAS score was equal to the distance (in mm) from the left-hand end of the scale to the patient's mark. For the categorical scale, patients completed the following statement, “My pain at this time is” using the scale None=0, Mild=1, Moderate=2, or Severe=3.

[2] = Example 5: urinary excretion of oxymorphone and metabolites after EN3202 in renal impairment; conditions: for Mean percentage of the administered dose excreted in the urine / Mean urinary elimination half-life: EN3202 20 mg; for Mean percentage of the administered dose excreted in the urine: 0-120 hours; for Mean (SD) Ratio of Metabolite/Parent Excreted in Urine: parent = oxymorphone; for Mean (SD) Percent of Dose Recovered in Urine (0-120 hours): single oral 20-mg dose of EN3202
Procedure: (§1) Attempts were made to match controls with the renal impaired patients with respect to age, gender, and weight. […] Naltrexone (50 mg) was administered on the evening prior to administration of the EN3202 dose.
Each subject was to be instructed to void at the end of each interval (so that each collection interval began with an empty bladder). The void prior to administration of the test medication (time 0) served as the pre-dose blank and was not be included in the collection container.
(§2) Plasma and urine pharmacokinetic variables were calculated from the concentration data using standard, non-compartmental methods as outlined in the following table.

[3] = Example 5: correlation of oxymorphone and metabolite plasma AUC / oral clearance with creatinine clearance; type: in vivo, human; conditions: linear regression; for AUC/wt vs. CLCR: R-square / AUC/wt vs. CLCR: Slope: AUC normalized for body weight vs creatinine clearance; for AUC vs. CLCR: R-square / AUC vs. CLCR: Slope: plasma AUC vs creatinine clearance
Text: Creatinine clearance (ClCR) was estimated at screening using the following Cockroft and Gault^8 equation: […]
All pharmacokinetic results are summarized using appropriate descriptive statistics.
The potential association between plasma AUC and creatinine clearance was explored using linear regression techniques and the results are summarized in Table 36 and FIG. 16.

[4] = Example 5: plasma pharmacokinetics of oxymorphone and metabolites after EN3202 in renal impairment vs healthy controls; conditions: for Mean bioavailability ratio (90% confidence interval) for AUC relative to controls / Mean bioavailability ratio (90% confidence interval) for Cmax relative to controls: ln-transformed; for AUC in plasma (mean, untransformed) / AUCT in plasma (mean, untransformed) / Cmax in plasma (mean, untransformed) / Ke, terminal elimination rate constant in plasma (mean) / Tmax in plasma (median) / t½, terminal elimination half-life in plasma (mean): single 20 mg dose of EN3202
Procedure: as §1
In order to protect the subjects from potential opioid-related adverse events, a single 50-mg dose of the opioid antagonist ReVia® (naltrexone HCl) was administered at 20:00 the evening prior to administration of test medication. […] Subjects continued fasting until four (4) hours after dose administration. The subjects remained in an upright posture (sitting or standing) for 1 hour after dose administration. All doses were administered with 240 mL of water (room temperature), and the subjects were instructed to drink all the water.
as §2
All pharmacokinetic results are summarized using appropriate descriptive statistics. Continuous variables were compared between renally impaired and control groups using appropriate parametric statistics. 90% confidence intervals were calculated for the differences or ratios between the renally impaired and control groups. In addition, the association between oral clearance (and other pharmacokinetic variables) and the severity of renal insufficiency (based on creatinine clearance) was explored.

[5] = subjects with mild renal impairment
[6] = subjects with moderate renal impairment
[7] = subjects with severe renal impairment
[8] = EN3202 20 mg, mild renal impairment
[9] = EN3202 20 mg, moderate renal impairment
[10] = EN3202 20 mg, severe renal impairment
[11] = Healthy Controls, listed as oxymorphone-3-glucuronide
[12] = Severe Impairment, listed as oxymorphone-3-glucuronide

## CN1CC[C@]23c4c5ccc(O)c4O[C@H]2C(O)CC[C@@]3(O)[C@H]1C5 (some centres unmarked) [6-OH-oxymorphone, 6-hydroxy oxymorphone]
[1]
  Relation between pain relief and blood plasma level: there is a correlation
[2]; severe renal impairment
  Mean percentage of the administered dose excreted in the urine: 0.16%
  Mean urinary elimination half-life: 34.4 h
[2]; healthy controls
  Mean urinary elimination half-life: 22.8 h
  Mean (SD) Ratio of Metabolite/Parent Excreted in Urine: 0.85 (0.27)
  Mean (SD) Percent of Dose Recovered in Urine (0-120 hours): 0.62 (0.28) %
[2]; mild renal impairment
  Mean urinary elimination half-life: 19.6 h
[2]; moderate renal impairment
  Mean urinary elimination half-life: 22.4 h
[2]; [5]
  Mean (SD) Ratio of Metabolite/Parent Excreted in Urine: 0.73 (0.45)
  Mean (SD) Percent of Dose Recovered in Urine (0-120 hours): 0.49 (0.15) %
[2]; [6]
  Mean (SD) Ratio of Metabolite/Parent Excreted in Urine: 0.41 (0.22)
  Mean (SD) Percent of Dose Recovered in Urine (0-120 hours): 0.26 (0.14) %
[2]; [7]
  Mean (SD) Ratio of Metabolite/Parent Excreted in Urine: 0.47 (0.42)
  Mean (SD) Percent of Dose Recovered in Urine (0-120 hours): 0.16 (0.11) %
[3]
  AUC/wt vs. CLCR: R-square: 0.1222
  AUC/wt vs. CLCR: Slope: −0.0011
  AUC vs. CLCR: R-square: 0.0977
  AUC vs. CLCR: Slope: −0.1387
[4]; [8]
  Mean bioavailability ratio (90% confidence interval) for AUC relative to controls: 0.9953 (0.6153-1.6100)
  Mean bioavailability ratio (90% confidence interval) for Cmax relative to controls: 1.4818
[4]; [9]
  Mean bioavailability ratio (90% confidence interval) for AUC relative to controls: 0.9445 (0.5839-1.5279)
[4]; [10]
  Mean bioavailability ratio (90% confidence interval) for AUC relative to controls: 1.3862 (0.8569-2.2423)
[4]; Healthy Controls
  AUC in plasma (mean, untransformed): 19.76 ng·h/mL
  AUCT in plasma (mean, untransformed): 14.95 ng·h/mL
  Cmax in plasma (mean, untransformed): 0.70 ng/mL
  Ke, terminal elimination rate constant in plasma (mean): 0.0449
  Tmax in plasma (median): 1.5 h
  t½, terminal elimination half-life in plasma (mean): 22.20 h
[4]; Mild Impairment
  AUC in plasma (mean, untransformed): 18.57 ng·h/mL
  AUCT in plasma (mean, untransformed): 14.26 ng·h/mL
  Cmax in plasma (mean, untransformed): 0.99 ng/mL
  Ke, terminal elimination rate constant in plasma (mean): 0.0451
  Tmax in plasma (median): 1.5 h
  t½, terminal elimination half-life in plasma (mean): 18.04 h
[4]; Moderate Impairment
  AUC in plasma (mean, untransformed): 17.64 ng·h/mL
  AUCT in plasma (mean, untransformed): 11.70 ng·h/mL
  Cmax in plasma (mean, untransformed): 0.76 ng/mL
  Ke, terminal elimination rate constant in plasma (mean): 0.0312
  Tmax in plasma (median): 2.5 h
  t½, terminal elimination half-life in plasma (mean): 27.82 h
[4]; Severe Impairment
  AUC in plasma (mean, untransformed): 32.04 ng·h/mL
  AUCT in plasma (mean, untransformed): 26.48 ng·h/mL
  Cmax in plasma (mean, untransformed): 0.99 ng/mL
  Ke, terminal elimination rate constant in plasma (mean): 0.0349
  Tmax in plasma (median): 2.0 h
  t½, terminal elimination half-life in plasma (mean): 26.53 h

## CN1CC[C@]23c4c5ccc(O[C@@H]6O[C@H](C(=O)O)[C@@H](O)[C@H](O)[C@H]6O)c4O[C@H]2C(=O)CC[C@@]3(O)[C@H]1C5 [Oxymorphone-3-glucuronide, oxymorphone-3-glucuronide]
[2]; healthy controls
  Mean percentage of the administered dose excreted in the urine: 37.16%
  Mean urinary elimination half-life: 12.7 h
  Mean (SD) Ratio of Metabolite/Parent Excreted in Urine: 51.78 (16.89)
  Mean (SD) Percent of Dose Recovered in Urine (0-120 hours): 37.16 (14.94) %
[2]; severe renal impairment
  Mean percentage of the administered dose excreted in the urine: 38.35%
  Mean urinary elimination half-life: 36.6 h
[2]; mild renal impairment
  Mean urinary elimination half-life: 9.8 h
[2]; moderate renal impairment
  Mean urinary elimination half-life: 12.8 h
[2]; [5]
  Mean (SD) Ratio of Metabolite/Parent Excreted in Urine: 72.17 (48.36)
  Mean (SD) Percent of Dose Recovered in Urine (0-120 hours): 44.36 (8.72) %
[2]; [6]
  Mean (SD) Ratio of Metabolite/Parent Excreted in Urine: 70.62 (37.69)
  Mean (SD) Percent of Dose Recovered in Urine (0-120 hours): 38.87 (8.63) %
[2]; [7]
  Mean (SD) Ratio of Metabolite/Parent Excreted in Urine: 112.44 (40.45)
  Mean (SD) Percent of Dose Recovered in Urine (0-120 hours): 38.35 (13.10) %
[3]
  AUC/wt vs. CLCR: R-square: 0.4911
  AUC/wt vs. CLCR: Slope: −1.4140
  AUC vs. CLCR: R-square: 0.4976
  AUC vs. CLCR: Slope: −221.43
[4]; EN3202 20 mg, healthy controls
  Mean plasma metabolite:oxymorphone ratio of AUC values (molar units): 94.1
[4]; [8]
  Mean plasma metabolite:oxymorphone ratio of AUC values (molar units): 132.3
  Mean bioavailability ratio (90% confidence interval) for AUC relative to controls: 1.7960 (1.3071-2.4677)
  Mean bioavailability ratio (90% confidence interval) for Cmax relative to controls: 1.5769 (1.2146-2.0473)
[4]; [9]
  Mean plasma metabolite:oxymorphone ratio of AUC values (molar units): 191.4
  Mean bioavailability ratio (90% confidence interval) for AUC relative to controls: 3.1196 (2.2704-4.2863)
  Mean bioavailability ratio (90% confidence interval) for Cmax relative to controls: 1.9830 (1.5274-2.5745)
[4]; [10]
  Mean plasma metabolite:oxymorphone ratio of AUC values (molar units): 505.6
  Mean bioavailability ratio (90% confidence interval) for AUC relative to controls: 9.0701 (6.6013-12.462)
  Mean bioavailability ratio (90% confidence interval) for Cmax relative to controls: 3.1422 (2.4202-4.0795)
[4]; EN3202 20 mg, subjects with creatinine clearance values, 30 mL/min
  Mean increase in plasma AUC values relative to healthy controls: ~9.7 fold
[4]; Healthy Controls
  AUC in plasma (mean, untransformed): 2439.7 ng·h/mL
  AUCT in plasma (mean, untransformed): 2309.5 ng·h/mL
  Cmax in plasma (mean, untransformed): 170.1 ng/mL
  Tmax in plasma (median): 3.0 h
  t½, terminal elimination half-life in plasma (mean): 9.53 h
[4]; [11]
  AUC in plasma (mean, untransformed): 2440 ng·h/mL
  Cmax in plasma (mean, untransformed): 170 ng/mL
  t½, terminal elimination half-life in plasma (mean): 9.5 h
[4]; Mild Impairment
  AUC in plasma (mean, untransformed): 4468.6 ng·h/mL
  AUCT in plasma (mean, untransformed): 4330.7 ng·h/mL
  Cmax in plasma (mean, untransformed): 280.2 ng/mL
  Tmax in plasma (median): 3.5 h
  t½, terminal elimination half-life in plasma (mean): 10.23 h
[4]; Moderate Impairment
  AUC in plasma (mean, untransformed): 8129.7 ng·h/mL
  AUCT in plasma (mean, untransformed): 7959.9 ng·h/mL
  Cmax in plasma (mean, untransformed): 359.7 ng/mL
  Tmax in plasma (median): 4.5 h
  t½, terminal elimination half-life in plasma (mean): 11.10 h
[4]; Severe Impairment
  AUC in plasma (mean, untransformed): 23604.2 ng·h/mL
  AUCT in plasma (mean, untransformed): 22313.6 ng·h/mL
  Cmax in plasma (mean, untransformed): 547.7 ng/mL
  Tmax in plasma (median): 11.0 h
  t½, terminal elimination half-life in plasma (mean): 22.09 h
[4]; [12]
  AUC in plasma (mean, untransformed): 23604 ng·h/mL
  Cmax in plasma (mean, untransformed): 548 ng/mL
  t½, terminal elimination half-life in plasma (mean): 22.1 h
